In the OPERA property sets (Mansouri et al. 2018):
≈ marks a conversion by molar mass, not a printed value.

Details: for solubility: 22 °C

logP | solubility [µM] | Structure (SMILES)
1.24 | 3980 (≈ 880 µg/mL) | CC(=O)NC(=O)COC(=O)c1ccccc1
– | 42500 (≈ 8800 µg/mL) | CN(C)C(=O)COC(=O)c1ccccc1
1.46 | – | CC(=O)Oc1ccccc1C(=O)OCCN(C)C(C)=O
0.2 | – | NC(=O)C1CCCN1C(=O)COC(=O)c1ccccc1 (stereo not drawn)
1.28 | – | COCCN(CCOC)C(=O)COC(=O)c1ccccc1
2.81 | 125 (≈ 33 µg/mL) | CCCCCCNC(=O)COC(=O)c1ccccc1
– | 1920 (≈ 480 µg/mL) | C[C@H](NC(=O)COC(=O)c1ccccc1)C(N)=O
– | 8500 (≈ 2000 µg/mL) | CCN(CC)C(=O)COC(=O)c1ccccc1
0.79 | – | O=C(OCC(=O)N1CCC1C(=O)O)c1ccccc1 (stereo not drawn)
2.26 | 1360 (≈ 320 µg/mL) | CC(C)(C)NC(=O)COC(=O)c1ccccc1
1.24 | – | CC(=O)N(C)CCOC(=O)c1ccccc1
– | 3150 (≈ 780 µg/mL) | O=C(OCC(=O)N1CCCCC1)c1ccccc1
2.98 | – | CCCOC(=O)n1c(-c2cscn2)nc2ccccc21
2.3 | – | CCN(CC)C(=O)C(C)OC(=O)c1ccccc1 (stereo not drawn)
2.5 | – | CCCC(=O)OCOC(=O)c1ccccc1OC(C)=O

Further lines, the compound ahead of its results:

Structure (SMILES) | logP | solubility [µM]
CC(O)CN(CC(C)O)C(=O)COC(=O)c1ccccc1 (stereo not drawn) | 0.66 | –
CC(=O)N(C)C(=O)COC(=O)c1ccccc1 | 1.58 | 1360 (≈ 320 µg/mL)
O=C(COC(=O)c1ccccc1)NC(CO)(CO)CO | 0.25 | –
CCCCCCN(CCCCCC)C(=O)COC(=O)c1ccccc1 | 6.53 | –
O=C(OCC(=O)N1CCC(O)CC1)c1ccccc1 | 0.63 | 44800 (≈ 11800 µg/mL)
CCCNC(=O)COC(=O)c1ccccc1 | 1.88 | 2890 (≈ 640 µg/mL)
NC(=O)COC(=O)c1ccccc1 | 0.69 | 22900 (≈ 4100 µg/mL)
C=CCN(CC=C)C(=O)COC(=O)c1ccccc1 | – | 2740 (≈ 710 µg/mL)
CCCCN(CCCC)C(=O)COC(=O)c1ccccc1 | – | 275 (≈ 80 µg/mL)
CC(C)NC(=O)COC(=O)c1ccccc1 | 1.73 | 1850 (≈ 410 µg/mL)
CCCCNC(=O)COC(=O)c1ccccc1 | 2.36 | 1740 (≈ 410 µg/mL)
CCNC(=O)COC(=O)c1ccccc1 | 1.28 | 5790 (≈ 1200 µg/mL)
CC(NC(=O)COC(=O)c1ccccc1)C(N)=O (stereo not drawn) | 0.42 | –
CCCCCCN(C)C(=O)COC(=O)c1ccccc1 | 2.99 | –
O=C(OCC(=O)N1CCCCCC1)c1ccccc1 | – | 2870 (≈ 750 µg/mL)
CNC(=O)COC(=O)c1ccccc1 | 0.99 | 19200 (≈ 3700 µg/mL)
O=C(OCC(=O)N1CCOCC1)c1ccccc1 | – | 16900 (≈ 4200 µg/mL)
